Assay [1] relates to adrenergic α1 receptor. As to the kind of experiment: Binding assay α1 (non-selective), [3H]prazosin, rat cerebral cortex. The note with it: percent inhibition of control specific binding; compounds tested at 1×10^−6 M. In short, it runs like this: (§1)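 Specific ligand binding was taken as total minus non-specific binding, with the latter defined in the presence of surplus unlabelled ligand. Each compound was tested at a single 1×10^−6 M concentration.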

The target of assay [2] is serotoninergic 5-HT2A receptor (Homo sapiens, UniProt P28223). Put plainly: Binding assay 5-HT2A (h), [3H]ketanserin, HEK-293 cells. Also noted: expressed in transfected cells; host or cells: HEK-293 cells. The note with it: read-out: 5-HT2A. In short, it runs like this:
as §1

In assay [3] the target is dopaminergic D3 receptor (Homo sapiens, UniProt P35462). As to the kind of experiment: Binding assay D3 (h), [3H]methyl-spiperone, CHO cells. More on the design: expressed in transfected cells; host or cells: CHO cells. To be noted: read-out: D3 [%]. In a few lines: as §1
dopaminergic D3 receptor, sequence (P35462 whole entry): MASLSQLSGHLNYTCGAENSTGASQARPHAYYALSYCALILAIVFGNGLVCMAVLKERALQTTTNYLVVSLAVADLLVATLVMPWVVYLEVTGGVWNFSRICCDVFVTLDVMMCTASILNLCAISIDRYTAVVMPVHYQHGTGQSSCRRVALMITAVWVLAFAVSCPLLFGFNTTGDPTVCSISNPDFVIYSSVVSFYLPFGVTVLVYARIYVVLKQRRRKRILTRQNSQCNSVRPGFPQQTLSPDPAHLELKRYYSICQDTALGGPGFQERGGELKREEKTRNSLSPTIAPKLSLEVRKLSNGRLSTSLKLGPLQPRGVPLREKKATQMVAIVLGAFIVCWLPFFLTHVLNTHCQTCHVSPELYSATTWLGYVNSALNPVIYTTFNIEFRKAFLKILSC
The target in assay [4] is dopaminergic D2 receptor (Homo sapiens, UniProt P14416). As to the kind of experiment: Binding assay D2S (h), [3H]methyl-spiperone, HEK-293 cells. Also noted: expressed in transfected cells; host or cells: HEK-293 cells. The note with it: read-out: D2 [%]. In short, it runs like this:
as §1

Assay [5] has as its target serotoninergic 5-HT6 receptor (Homo sapiens, UniProt P50406). Put plainly: Binding assay 5-HT6 (h), [3H]LSD, CHO cells. More on the design: expressed in transfected cells; host or cells: CHO cells. To be noted: read-out: 5-HT6. In a few lines: as §1
The target in assay [6] is serotoninergic 5-HT7 receptor (Homo sapiens, UniProt P34969). Put plainly: Binding assay 5-HT7 (h), [3H]LSD, CHO cells. Also noted: expressed in transfected cells; host or cells: CHO cells. The note with it: read-out: 5-HT7. In a few lines: as §1
serotoninergic 5-HT7 receptor, sequence (P34969 whole entry): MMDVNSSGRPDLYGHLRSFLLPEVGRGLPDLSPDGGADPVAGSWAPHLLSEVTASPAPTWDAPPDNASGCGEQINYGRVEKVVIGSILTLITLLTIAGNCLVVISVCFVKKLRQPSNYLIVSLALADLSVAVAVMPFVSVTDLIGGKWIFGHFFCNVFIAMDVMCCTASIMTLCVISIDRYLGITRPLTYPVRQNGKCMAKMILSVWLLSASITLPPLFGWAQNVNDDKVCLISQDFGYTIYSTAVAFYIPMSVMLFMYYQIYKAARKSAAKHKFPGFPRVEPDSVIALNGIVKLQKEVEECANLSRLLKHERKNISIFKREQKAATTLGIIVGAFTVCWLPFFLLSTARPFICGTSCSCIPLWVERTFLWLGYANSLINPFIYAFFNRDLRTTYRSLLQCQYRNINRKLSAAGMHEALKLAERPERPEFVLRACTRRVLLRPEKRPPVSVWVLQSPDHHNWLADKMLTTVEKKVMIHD
The target of assay [7] is T1, serotoninergic 5-HT1A receptor (Homo sapiens, UniProt P08908).
T1 sequence (P08908 1-422): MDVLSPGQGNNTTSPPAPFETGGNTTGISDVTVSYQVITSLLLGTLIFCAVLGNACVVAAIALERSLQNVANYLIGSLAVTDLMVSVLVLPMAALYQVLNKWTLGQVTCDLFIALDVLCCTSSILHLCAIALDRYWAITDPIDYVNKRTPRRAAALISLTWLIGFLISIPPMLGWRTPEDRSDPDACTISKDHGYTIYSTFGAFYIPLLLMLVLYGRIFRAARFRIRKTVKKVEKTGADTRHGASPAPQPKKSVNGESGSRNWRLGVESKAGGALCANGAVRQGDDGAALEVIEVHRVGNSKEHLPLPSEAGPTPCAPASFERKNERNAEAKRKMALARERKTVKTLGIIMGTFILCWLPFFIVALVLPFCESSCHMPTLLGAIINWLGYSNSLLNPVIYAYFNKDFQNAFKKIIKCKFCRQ
As to the kind of experiment: Binding assay 5-HT1A (h), [3H]8-OH-DPAT, HEK-293 cells. More on the design: expressed in transfected cells; host or cells: HEK-293 cells. To be noted: read-out: 5-HT1A. In short, it runs like this:
as §1

Assay [8] concerns the target T2, serotonine transporter (SERT) receptor (Homo sapiens, UniProt P31645).
T2 construct: expressed in transfected cells; host or cells: CHO cells
Put plainly: Binding assay SERT (h), [3H]imipramine, CHO cells. To be noted: read-out: SERT [%]. In short, it runs like this: as §1

serotoninergic 5-HT2A receptor, sequence (P28223 whole entry): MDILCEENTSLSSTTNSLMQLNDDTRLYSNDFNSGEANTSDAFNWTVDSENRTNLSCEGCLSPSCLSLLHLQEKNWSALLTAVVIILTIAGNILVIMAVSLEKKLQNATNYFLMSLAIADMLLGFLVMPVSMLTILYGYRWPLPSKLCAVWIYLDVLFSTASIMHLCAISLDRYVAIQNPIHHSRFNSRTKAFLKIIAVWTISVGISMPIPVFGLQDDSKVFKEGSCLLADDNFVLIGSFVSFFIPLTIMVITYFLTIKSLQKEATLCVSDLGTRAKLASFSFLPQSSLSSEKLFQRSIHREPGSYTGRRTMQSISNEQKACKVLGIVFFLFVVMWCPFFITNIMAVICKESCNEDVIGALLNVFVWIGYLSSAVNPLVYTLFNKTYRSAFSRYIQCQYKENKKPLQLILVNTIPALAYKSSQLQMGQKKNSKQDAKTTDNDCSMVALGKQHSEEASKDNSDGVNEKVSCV
serotoninergic 5-HT6 receptor, sequence (P50406 whole entry): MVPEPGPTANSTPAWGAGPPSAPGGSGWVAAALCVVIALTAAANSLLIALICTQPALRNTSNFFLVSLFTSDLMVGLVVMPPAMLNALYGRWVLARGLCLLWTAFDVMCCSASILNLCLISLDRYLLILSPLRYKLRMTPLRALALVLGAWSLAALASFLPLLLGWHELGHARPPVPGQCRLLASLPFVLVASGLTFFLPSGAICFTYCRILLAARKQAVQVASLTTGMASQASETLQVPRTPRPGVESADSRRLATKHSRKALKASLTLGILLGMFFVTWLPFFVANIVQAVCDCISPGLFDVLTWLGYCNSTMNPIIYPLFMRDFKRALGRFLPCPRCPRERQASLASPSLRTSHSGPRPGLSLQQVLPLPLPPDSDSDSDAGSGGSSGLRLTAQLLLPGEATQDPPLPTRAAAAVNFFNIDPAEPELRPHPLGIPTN
dopaminergic D2 receptor, sequence (P14416 1-414 isoform P14416-2): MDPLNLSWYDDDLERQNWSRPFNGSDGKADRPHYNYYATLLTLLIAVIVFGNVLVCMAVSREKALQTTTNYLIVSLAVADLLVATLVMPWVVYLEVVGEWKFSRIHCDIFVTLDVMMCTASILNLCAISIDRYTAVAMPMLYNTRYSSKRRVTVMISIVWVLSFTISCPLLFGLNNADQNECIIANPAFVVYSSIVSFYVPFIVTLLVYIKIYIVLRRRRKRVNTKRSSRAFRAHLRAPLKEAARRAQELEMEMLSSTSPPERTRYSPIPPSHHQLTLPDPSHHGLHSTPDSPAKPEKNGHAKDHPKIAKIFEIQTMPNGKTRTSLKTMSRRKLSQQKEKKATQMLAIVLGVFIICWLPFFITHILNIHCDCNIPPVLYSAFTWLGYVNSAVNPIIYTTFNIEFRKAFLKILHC
T2 sequence (P31645 whole entry): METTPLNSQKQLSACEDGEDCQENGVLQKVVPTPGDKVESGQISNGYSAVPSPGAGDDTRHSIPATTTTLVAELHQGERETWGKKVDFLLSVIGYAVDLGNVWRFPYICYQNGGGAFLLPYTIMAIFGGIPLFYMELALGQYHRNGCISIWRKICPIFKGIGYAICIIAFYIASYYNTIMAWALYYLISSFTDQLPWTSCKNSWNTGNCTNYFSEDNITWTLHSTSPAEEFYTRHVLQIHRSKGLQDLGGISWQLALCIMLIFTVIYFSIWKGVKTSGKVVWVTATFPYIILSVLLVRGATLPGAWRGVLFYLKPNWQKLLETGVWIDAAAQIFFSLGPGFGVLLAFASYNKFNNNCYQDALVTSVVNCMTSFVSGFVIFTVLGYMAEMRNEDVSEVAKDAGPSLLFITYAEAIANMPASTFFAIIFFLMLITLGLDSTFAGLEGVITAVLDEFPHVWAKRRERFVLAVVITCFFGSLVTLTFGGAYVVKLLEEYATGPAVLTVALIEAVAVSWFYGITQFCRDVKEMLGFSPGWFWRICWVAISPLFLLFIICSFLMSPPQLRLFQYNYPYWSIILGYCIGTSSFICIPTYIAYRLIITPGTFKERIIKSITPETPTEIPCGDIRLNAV

For `Cc1[nH]c2ccc(Cl)cc2c1C1=CCN(CCNS(=O)(=O)c2ccc(F)cc2)CC1` [Compound 449, N-[2-[4-(5-Chloro-2-methyl-1H-indol-3-yl)-3,6-dihydro-2H-pyridin-1-yl]ethyl]-4-fluorobenzenesulphonamide], in assay [1], the “α1 [%]” value was found to be 12%. Besides, the inhibition at 1 µM was determined as 76% in assay [2]; 34% in assay [3]; 31% in assay [4]; 93% in assay [5]; 81% in assay [6]; 57% in assay [7]. Also, the inhibition at 1 µM in assay [8] came out at 21%.
With `O=S(=O)(NCCCN1CCC(c2noc3cc(F)ccc23)CC1)c1cccs1` [Compound 339, N-[3-[4-(6-Fluoro-1,2-benzoxazol-3-yl)piperidin-1-yl]propyl]thiophene-2-sulphonamide], the “α1 [%]” value in assay [1] was found to be 108%. Further, the inhibition at 1 µM amounted to 82% in assay [2]; 100% in assay [3]; 96% in assay [4]; 89% in assay [5]; 89% in assay [6]; 76% in assay [7]. The inhibition at 1 µM in assay [8] is 3%.
`O=C1COc2c(cccc2N2CCN(CCCCNS(=O)(=O)c3ccc(F)cc3)CC2)N1` [Compound 428, 4-Fluoro-N-[4-[4-(3-oxo-4H-1,4-benzoxazin-8-yl)piperazin-1-yl]butyl]benzenesulphonamide]: in assay [1], the “α1 [%]” value is 72%. In addition, the inhibition at 1 µM amounted to 30% in assay [2]; 104% in assay [3]; 78% in assay [4]; 33% in assay [5]; 78% in assay [6]; 90% in assay [7]. Further, the inhibition at 1 µM in assay [8] is 23%.
For `O=S(=O)(NCCCCN1CCC(c2noc3cc(F)ccc23)CC1)c1ccc(-c2ccccc2)cc1` [Compound 111, N-[4-[4-(6-Fluoro-1,2-benzoxazol-3-yl)piperidin-1-yl]butyl]-4-phenylbenzenesulphonamide], the “α1 [%]” value in assay [1] worked out at 100%. The inhibition at 1 µM is 96% in assay [2]; 93% in assay [3]; 108% in assay [4]; 95% in assay [5]; 93% in assay [6]; 39% in assay [7]. In assay [8], the inhibition at 1 µM is -14%.
For the molecule `N#Cc1ccc(S(=O)(=O)NCCCN2CCC(c3noc4cc(F)ccc34)CC2)cc1` [Compound 337, 4-Cyano-N-[3-[4-(6-fluoro-1,2-benzoxazol-3-yl)piperidin-1-yl]propyl]benzenesulphonamide], the “α1 [%]” value in assay [1] turned out to be 93%. In addition, the inhibition at 1 µM in assay [2] was determined as 102%; in assay [3], 79%; in assay [4], 59%; in assay [5], 76%; in assay [6] it was 87%; in assay [7], 41%. In addition, the inhibition at 1 µM in assay [8] was determined as 35%.
As to `O=S(=O)(NCCCN1CCN(c2nsc3ccccc23)CC1)c1ccc(OC(F)(F)F)cc1` [Compound 259, N-[3-[4-(1,2-Benzothiazol-3-yl)piperazin-1-yl]propyl]-4-(trifluoromethoxy)benzenesulphonamide], in assay [1], the “α1 [%]” value was determined as 88%. Besides, the inhibition at 1 µM in assay [2] turned out to be 56%; in assay [3], 85%; in assay [4] it was 93%; in assay [5] it was 74%; in assay [6] it was 96%; in assay [7], 97%. Besides, the inhibition at 1 µM in assay [8] was determined as 16%.
With `O=S(=O)(NCCCN1CCN(c2cccc3c2OCCO3)CC1)c1cccc2ccccc12` [Compound 405, N-[3-[4-(2,3-Dihydro-1,4-benzodioxin-5-yl)piperazin-1-yl]propyl]naphthalene-1-sulphonamide], the “α1 [%]” value in assay [1] was 82%. In addition, the inhibition at 1 µM in assay [2] is 74%; in assay [3] it was 62%; in assay [4] it was 68%; in assay [5] it was 53%; in assay [6] it was 93%; in assay [7], 97%. The inhibition at 1 µM in assay [8] was -5%.
`O=S(=O)(NCCCCN1CCN(c2cccc3c2OCCO3)CC1)c1ccc2ccccc2c1` [Compound 386, N-[4-[4-(2,3-Dihydro-1,4-benzodioxin-5-yl)piperazin-1-yl]butyl]naphthalene-2-sulphonamide]: the “α1 [%]” value in assay [1] is reported as 96%. The inhibition at 1 µM was 65% in assay [2]; 88% in assay [3]; 70% in assay [4]; 1% in assay [5]; 82% in assay [6]; 96% in assay [7]. Further, the inhibition at 1 µM in assay [8] is -5%.
For `O=S(=O)(NCCCCN1CCN(c2nsc3ccccc23)CC1)c1cccc(Br)c1` [Compound 230, N-[4-[4-(1,2-Benzothiazol-3-yl)piperazin-1-yl]butyl]-3-bromobenzenesulphonamide], the “α1 [%]” value in assay [1] stood at 98%. The inhibition at 1 µM in assay [2] came to 87%; in assay [3] it was 87%; in assay [4] it was 105%; in assay [5], 85%; in assay [6] it was 101%; in assay [7] it was 85%. For the same molecule, in assay [8], the inhibition at 1 µM came out at 13%.
In the case of `O=S(=O)(NCCCN1CCC(c2noc3cc(F)ccc23)CC1)c1ccc(OC(F)(F)F)cc1` [Compound 336, N-[3-[4-(6-Fluoro-1,2-benzoxazol-3-yl)piperidin-1-yl]propyl]-4-(trifluoromethoxy)-benzenesulphonamide], the “α1 [%]” value in assay [1] turned out to be 107%. In addition, the inhibition at 1 µM in assay [2] turned out to be 100%; in assay [3], 96%; in assay [4] it was 97%; in assay [5], 92%; in assay [6] it was 92%; in assay [7], 61%. Further, the inhibition at 1 µM in assay [8] was found to be 41%.
With `O=C1COc2c(cccc2N2CCN(CCCCNS(=O)(=O)c3cccc(C(F)(F)F)c3)CC2)N1` [Compound 430, N-[4-[4-(3-oxo-4H-1,4-benzoxazin-8-yl)piperazin-1-yl]butyl]-3-(trifluoromethyl)benzenesulphonamide], the “α1 [%]” value in assay [1] is on record as 46%. In addition, the inhibition at 1 µM in assay [2] came out at 87%; in assay [3] it was 101%; in assay [4], 69%; in assay [5], 94%; in assay [6], 84%; in assay [7], 86%. In assay [8], the inhibition at 1 µM is 19%.
